ChEMBL document CHEMBL5126594, “Entry inhibition of hepatitis B virus using cyclosporin O derivatives with peptoid side chain incorporation” (Bioorg Med Chem, 2022)

System: Hepatitis B virus
Test: Antiviral activity against Hepatitis B virus infected in human HepG2 cells expressing NTCP assessed as inhibition of viral entry by measuring intracellular HBV DNA at 1 uM preincubated with compound for 2 hrs followed by viral infection and measured after 3 hrs by qPCR analysis relative to control
Format: functional
Conditions: time 5 hrs

| SMILES | inhibition at 1 µM [%] |
| --- | --- |
| CCC[C@@H]1NC(=O)[C@H](CC(C)C)N(C)C(=O)[C@H](CC(C)C)N(C)C(=O)[C@H](CC(C)C)N(C)C(=O)CN(C)C(=O)[C@@H](C)NC(=O)[C@@H](CCC(N)=O)NC(=O)[C@H](CC(C)C)N(C)C(=O)[C@H](C(C)C)NC(=O)[C@H](CC(C)C)N(C)C(=O)CN(C)C1=O | 64 |
| CCC[C@@H]1NC(=O)[C@H](CC(C)C)N(C)C(=O)[C@H](CC(C)C)N(C)C(=O)[C@H](CC(C)C)N(C)C(=O)[C@H](CC(C)C)N(C)C(=O)[C@@H](C)NC(=O)[C@@H](CCC(N)=O)NC(=O)[C@H](CC(C)C)N(C)C(=O)[C@H](C(C)C)NC(=O)CN(CCCCN)C(=O)CN(C)C1=O | 71 |
| CCC[C@@H]1NC(=O)[C@H](CC(C)C)N(C)C(=O)[C@H](CC(C)C)N(C)C(=O)[C@H](CC(C)C)N(C)C(=O)[C@H](CC(C)C)N(C)C(=O)[C@@H](C)NC(=O)[C@@H](CCC(N)=O)NC(=O)[C@H](CC(C)C)N(C)C(=O)[C@H](C(C)C)NC(=O)CN(CCOC)C(=O)CN(C)C1=O | 67 |
| CCC[C@@H]1NC(=O)[C@H](CC(C)C)N(C)C(=O)[C@H](CC(C)C)N(C)C(=O)[C@H](CC(C)C)N(C)C(=O)[C@H](CC(C)C)N(C)C(=O)[C@@H](C)NC(=O)[C@@H](CCC(N)=O)NC(=O)[C@H](CC(C)C)N(C)C(=O)[C@H](C(C)C)NC(=O)CN(CCC(=O)O)C(=O)CN(C)C1=O | 61 |
| CCC[C@@H]1NC(=O)[C@H](CC(C)C)N(C)C(=O)[C@H](CC(C)C)N(C)C(=O)[C@H](CC(C)C)N(C)C(=O)CN(CC(C)C)C(=O)[C@@H](C)NC(=O)[C@@H](CCC(N)=O)NC(=O)[C@H](CC(C)C)N(C)C(=O)[C@H](C(C)C)NC(=O)[C@H](CC(C)C)N(C)C(=O)CN(C)C1=O | 62 |
| CCC[C@@H]1NC(=O)[C@H](CC(C)C)N(C)C(=O)[C@H](CC(C)C)N(C)C(=O)[C@H](CC(C)C)N(C)C(=O)[C@H](CC(C)C)N(C)C(=O)[C@@H](C)NC(=O)[C@@H](CCC(N)=O)NC(=O)[C@H](CC(C)C)N(C)C(=O)[C@H](C(C)C)NC(=O)CN(CCO)C(=O)CN(C)C1=O | 66 |
| CCC[C@@H]1NC(=O)[C@H](CC(C)C)N(C)C(=O)[C@H](CC(C)C)N(C)C(=O)[C@H](CC(C)C)N(C)C(=O)CN(CCOC)C(=O)[C@@H](C)NC(=O)[C@@H](CCC(N)=O)NC(=O)[C@H](CC(C)C)N(C)C(=O)[C@H](C(C)C)NC(=O)[C@H](CC(C)C)N(C)C(=O)CN(C)C1=O | 72 |
| CCC[C@@H]1NC(=O)[C@H](CC(C)C)N(C)C(=O)[C@H](CC(C)C)N(C)C(=O)[C@H](CC(C)C)N(C)C(=O)CN(CCO)C(=O)[C@@H](C)NC(=O)[C@@H](CCC(N)=O)NC(=O)[C@H](CC(C)C)N(C)C(=O)[C@H](C(C)C)NC(=O)[C@H](CC(C)C)N(C)C(=O)CN(C)C1=O | 59 |
| CCC[C@@H]1NC(=O)[C@H](CC(C)C)N(C)C(=O)[C@H](CC(C)C)N(C)C(=O)[C@H](CC(C)C)N(C)C(=O)CN(CCCCN)C(=O)[C@@H](C)NC(=O)[C@@H](CCC(N)=O)NC(=O)[C@H](CC(C)C)N(C)C(=O)[C@H](C(C)C)NC(=O)[C@H](CC(C)C)N(C)C(=O)CN(C)C1=O | 69 |
| CCC[C@@H]1NC(=O)[C@H](CC(C)C)N(C)C(=O)[C@H](CC(C)C)N(C)C(=O)[C@H](CC(C)C)N(C)C(=O)CN(Cc2ccccc2)C(=O)[C@@H](C)NC(=O)[C@@H](CCC(N)=O)NC(=O)[C@H](CC(C)C)N(C)C(=O)[C@H](C(C)C)NC(=O)[C@H](CC(C)C)N(C)C(=O)CN(C)C1=O | 69 |
| CCC[C@@H]1NC(=O)[C@H](CC(C)C)N(C)C(=O)[C@H](C(C)C)N(C)C(=O)[C@H](CC(C)C)N(C)C(=O)[C@H](CC(C)C)N(C)C(=O)[C@@H](C)NC(=O)[C@@H](CCC(N)=O)NC(=O)[C@H](CC(C)C)N(C)C(=O)[C@H](C(C)C)NC(=O)[C@H](CC(C)C)N(C)C(=O)CN(C)C1=O | 57 |
| CCC[C@@H]1NC(=O)[C@H](CC(C)C)N(C)C(=O)[C@H](CC(C)C)N(C)C(=O)[C@H](CC(C)C)N(C)C(=O)[C@H](CC(C)C)N(C)C(=O)[C@@H](C)NC(=O)[C@@H](CCC(N)=O)NC(=O)[C@H](CC(C)C)N(C)C(=O)[C@H](C(C)C)NC(=O)CN(Cc2ccccc2)C(=O)CN(C)C1=O | 36 |
